Each structure is given as a SMILES string. Read-outs that look alike come from different tables or passages of the source.

Test [1] deals with recombinant human Bcl-2-G101V protein. The experiment in a line: Bcl-2-G101V TR-FRET Assay. Type of test: binding. The settings on record: for Ratio of Bcl-2 G101V/WT: ratio of biochemical IC50 Bcl-2 G101V / Bcl-2 WT. The method, boiled down: (§1)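 Ex337/em490 & 520 nm TR-FRET; % inhibition of Bcl-2-G101V–ligand interaction from 490:520 ratio vs. increasing compound conc.; IC50 by 4-parameter logistic fit.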
(In TR-FRET formats the signal depends on donor and acceptor labels being close together.)

The target of test [2] is recombinant human Bcl-2-G101V protein (Homo sapiens (Human), UniProt P10415, G101V). The experiment in a line: Bcl-2-G101V TR-FRET Assay. The settings on record: Bcl-2 G101V mutant, TR-FRET; read-out: Biochemical assay (IC50, nM) Bcl-2 G101V. Type of test: binding. An outline of the steps:
as §1

In test [3] the test system is BCL-2 G101V knock-in cell line H96 (derive from RS4;11). The experiment in a line: Bcl 2-G101V Knock-In RS4;11 Cell Proliferation Assay. Type of test: cell-based. The settings on record: Homo sapiens, RS4;11 Bcl-2 G101V knock-in clone H96, 48 hrs, CellTiter-GLO, read-out: Cellular proliferation assay (IC50, nM) RS4. The method, boiled down:
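CellTiter-Glo luminescence after 48 h, 37 °C compound treatment (10 concentrations, maximum 1 μM or 10 μM) gave mean IC50 values. Cells were 50,000 per well of H96, a BCL2-G101V knock-in single clone derived from RS4;11 by Cas9 editing.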
Background: In ATP-based viability assays light output follows the ATP content of the culture.

Test [4] has as its target recombinant human Bcl-2 D103Y protein (Homo sapiens (Human), UniProt P10415, D103Y). The experiment in a line: Bcl-2-D103Y Biochemical Assay (TR-FRET). The class given is binding. Conditions: for IC50: TR-FRET, FITC labeled Bak peptide; for Ratio of Bcl-2 D103Y/Bcl-2 WT: ratio of IC50. An outline of the steps:
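Compounds titrated against the Bcl-2 D103Y–ligand interaction; inhibition derived from the TR-FRET emission ratio 490 nm/520 nm after 337 nm excitation. Four-parameter logistic fitting gave IC50.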

Test [5] deals with Recombinant human Bcl-2 protein (Homo sapiens (Human), UniProt P10415). Briefly: Bcl-2 TR-FRET Assay. The class given is binding. An outline of the steps:
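In pH 7.5 phosphate buffer containing NaCl, EDTA, Tween-20 and BSA, 0.05 nM Bcl-2 saw serially diluted compound for 0.5 h before 0.5 nM FITC-Bak peptide was added. Signal ratio at 520/490 nm after 1 h yielded IC50.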

In test [6] the test system is RS4;11 (BCL-2 dependent acute lymphoblastic leukemia cell line). The experiment in a line: RS4;11 Cell Proliferation Assay. The class given is cell-based. The settings on record: Homo sapiens, RS4-11, RS4;11 cells, read-out: Cellular proliferation assay (IC50, nM) RS4. An outline of the steps:
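Viability measured via CellTiter-Glo luminescence after a 48 h, 37 °C exposure to compounds (10 points, highest 1 μM). Seeding was 50,000 RS4;11 cells per well in 10% FBS RPMI-1640; IC50 given as mean.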

Setting [7] is: Bcl-2 wild type, TR-FRET, read-out: Biochemical assay (IC50, nM) Bcl-2 WT.
Setting [8] is: wild type Bcl-2, unit inferred, read-out: Bcl-2 WT.

Regarding `CC(C)c1ccccc1[C@@H]1CN(Cc2ccc(F)cc2)CCN1C1CC2(CCN(c3ccc(C(=O)NS(=O)(=O)c4ccc(NC[C@H]5CC[C@](C)(O)CC5)c([N+](=O)[O-])c4)c(Oc4cnc5[nH]ccc5c4)c3)CC2)C1` (single isomer, unassigned) [Example 28a, 2-((1H-pyrrolo[2,3-b]pyridin-5-yl)oxy)-4-(2-((R or S)-4-(4-fluorobenzyl)-2-(2-isopropylphenyl)piperazin-1-yl)-7-azaspiro[3.5]nonan-7-yl)-N-((4-((((1r,4r)-4-hydroxy-4-methylcyclohexyl)methyl)amino)-3-nitrophenyl)sulfonyl)benzamide], in test [1], the “Ratio of Bcl-2 G101V/WT” value is recorded as 3.3. In addition, the IC50 in test [2] worked out at 0.33 nM; in test [3], 1.23 nM; in test [4] it was 0.2 nM; in test [5] (setting [7]), 0.098 nM; in test [5] (setting [8]), 0.098 nM; in test [6], 0.21 nM. Also, in test [4], the “Ratio of Bcl-2 D103Y/Bcl-2 WT” value is recorded as 2.1.
As to `CC(C)c1ccccc1[C@@H]1CN(Cc2ccc(Cl)cc2)CCN1C1CC2(CCN(c3ccc(C(=O)NS(=O)(=O)c4ccc(NC[C@H]5CC[C@](C)(O)CC5)c([N+](=O)[O-])c4)c(Oc4cnc5[nH]ccc5c4)c3)CC2)C1` (single isomer, unassigned) [Example 29a, 2-((1H-pyrrolo[2,3-b]pyridin-5-yl)oxy)-4-(2-((R or S)-4-(4-chlorobenzyl)-2-(2-isopropylphenyl)piperazin-1-yl)-7-azaspiro[3.5]nonan-7-yl)-N-((4-((((1r,4r)-4-hydroxy-4-methylcyclohexyl)methyl)amino)-3-nitrophenyl)sulfonyl)benzamide], the “Ratio of Bcl-2 G101V/WT” value in test [1] is on record as 3.5. In addition, the IC50 was determined as 0.72 nM in test [2]; 1.42 nM in test [3]; 0.38 nM in test [4]; 0.2 nM in test [5] (setting [7]); 0.2 nM in test [5] (setting [8]); 0.22 nM in test [6]. Besides, the “Ratio of Bcl-2 D103Y/Bcl-2 WT” value in test [4] came to 1.9.
On to `COc1ccc(CN2CCN(C3CC4(CCN(c5ccc(C(=O)NS(=O)(=O)c6ccc(NC[C@H]7CC[C@](C)(O)CC7)c([N+](=O)[O-])c6)c(Oc6cnc7[nH]ccc7c6)c5)CC4)C3)[C@H](c3ccccc3C(C)C)C2)c(OC)c1` (single isomer, unassigned) [Example 48a, 2-((1H-pyrrolo[2,3-b]pyridin-5-yl)oxy)-4-(2-((R or S)-4-(2,4-dimethoxybenzyl)-2-(2-isopropylphenyl)piperazin-1-yl)-7-azaspiro[3.5]nonan-7-yl)-N-((4-((((1r,4r)-4-hydroxy-4-methylcyclohexyl)methyl)amino)-3-nitrophenyl)sulfonyl)benzamide], for which the “Ratio of Bcl-2 G101V/WT” value in test [1] is 4.6. Besides, the IC50 in test [2] was 0.21 nM; in test [3], 0.81 nM; in test [4], 0.1 nM; in test [5] (setting [7]), 0.045 nM; in test [5] (setting [8]) it was 0.045 nM; in test [6] it was 0.16 nM. In test [4], the “Ratio of Bcl-2 D103Y/Bcl-2 WT” value stood at 2.3.
Take `COc1ccc(CN2CCN(C3CC4(CCN(c5ccc(C(=O)NS(=O)(=O)c6ccc(NC[C@@H]7CN(C8COC8)CCO7)c([N+](=O)[O-])c6)c(Oc6cnc7[nH]ccc7c6)c5)CC4)C3)[C@@H](c3ccccc3C(C)C)C2)cc1` (single isomer, unassigned) [Example 84, 2-((1H-pyrrolo[2,3-b]pyridin-5-yl)oxy)-4-(2-((R or S)-2-(2-isopropylphenyl)-4-(4-methoxybenzyl)piperazin-1-yl)-7-azaspiro[3.5]nonan-7-yl)-N-((3-nitro-4-((((R)-4-(oxetan-3-yl)morpholin-2-yl)methyl)amino)phenyl)sulfonyl)benzamide]: the “ratio of IC50 of Bcl-2 G101V/Bcl-2 wt, compared with Example F132b in WO2019210828 and ABT-199 (venetoclax)” value in test [1] (comparison in words) is listed as “much lower”. The “Ratio of Bcl-2 G101V/WT” value in test [1] was found to be 5.2. Also, the IC50 came to 0.15 nM in test [2]; 0.6 nM in test [3]; 0.049 nM in test [4]; 0.028 nM in test [5] (setting [7]); 0.028 nM in test [5] (setting [8]); 0.206 nM in test [6]. Also, the “ratio of Bcl-2 D103Y/Bcl-2 wt, compared with F91b in WO2019210828” value in test [4] (comparison in words) is “significantly lower”. For the same molecule, the “Ratio of Bcl-2 D103Y/Bcl-2 WT” value in test [4] was found to be 1.8.
With `CC(C)c1ccccc1C1CN(C2CCC2)CCN1C1CC2(CCN(c3ccc(C(=O)NS(=O)(=O)c4ccc(NC[C@H]5CC[C@](C)(O)CC5)c([N+](=O)[O-])c4)c(Oc4cnc5[nH]ccc5c4)c3)CC2)C1` (stereo partly drawn) [Example 5, 2-((1H-pyrrolo[2,3-b]pyridin-5-yl)oxy)-4-(2-(4-cyclobutyl-2-(2-isopropylphenyl)piperazin-1-yl)-7-azaspiro[3.5]nonan-7-yl)-N-((4-((((1r,4r)-4-hydroxy-4-methylcyclohexyl)methyl)amino)-3-nitrophenyl)sulfonyl)benzamide], in test [1], the “Ratio of Bcl-2 G101V/WT” value is 12.2. The IC50 worked out at 0.45 nM in test [2]; 5.33 nM in test [3]; 0.32 nM in test [4]; 0.037 nM in test [5] (setting [7]); 0.037 nM in test [5] (setting [8]); 0.58 nM in test [6]. For the same molecule, in test [4], the “Ratio of Bcl-2 D103Y/Bcl-2 WT” value was 12.
For the molecule `CC(C)c1ccccc1C1CN(C2COC2)CCN1C1CC2(CCN(c3ccc(C(=O)NS(=O)(=O)c4ccc(NC[C@H]5CC[C@](C)(O)CC5)c([N+](=O)[O-])c4)c(Oc4cnc5[nH]ccc5c4)c3)CC2)C1` (stereo partly drawn) [Example 6, 2-((1H-pyrrolo[2,3-b]pyridin-5-yl)oxy)-N-((4-((((1r,4r)-4-hydroxy-4-methylcyclohexyl)methyl)amino)-3-nitrophenyl)sulfonyl)-4-(2-(2-(2-isopropylphenyl)-4-(oxetan-3-yl)piperazin-1-yl)-7-azaspiro[3.5]nonan-7-yl)benzamide], the “Ratio of Bcl-2 G101V/WT” value in test [1] is given as 24.6. Further, the IC50 in test [2] came out at 0.32 nM; in test [3], 4.83 nM; in test [4], 0.18 nM; in test [5] (setting [7]) it was 0.013 nM; in test [5] (setting [8]), 0.013 nM; in test [6], 0.53 nM. In addition, in test [4], the “Ratio of Bcl-2 D103Y/Bcl-2 WT” value stood at 24.
In the case of `CC(C)c1ccccc1C1CN(C2CCOCC2)CCN1C1CC2(CCN(c3ccc(C(=O)NS(=O)(=O)c4ccc(NC[C@H]5CC[C@](C)(O)CC5)c([N+](=O)[O-])c4)c(Oc4cnc5[nH]ccc5c4)c3)CC2)C1` (stereo partly drawn) [Example 10, 2-((1H-pyrrolo[2,3-b]pyridin-5-yl)oxy)-N-((4-((((1r,4r)-4-hydroxy-4-methylcyclohexyl)methyl)amino)-3-nitrophenyl)sulfonyl)-4-(2-(2-(2-isopropylphenyl)-4-(tetrahydro-2H-pyran-4-yl)piperazin-1-yl)-7-azaspiro[3.5]nonan-7-yl)benzamide], the “Ratio of Bcl-2 G101V/WT” value in test [1] turned out to be 17.5. In addition, the IC50 amounted to 0.21 nM in test [2]; 3.16 nM in test [3]; 0.12 nM in test [4]; 0.012 nM in test [5] (setting [7]); 0.012 nM in test [5] (setting [8]); 0.42 nM in test [6]. Besides, the “Ratio of Bcl-2 D103Y/Bcl-2 WT” value in test [4] is 10.
On to `COCCN1CCN(C2CC3(CCN(c4ccc(C(=O)NS(=O)(=O)c5cc6c(c([N+](=O)[O-])c5)N[C@H](C[C@H]5CC[C@H](O)CC5)CO6)c(Oc5cnc6[nH]ccc6c5)c4)CC3)C2)C(c2ccccc2C(C)C)C1` (stereo partly drawn) [Example 14, 2-((1H-pyrrolo[2,3-b]pyridin-5-yl)oxy)-N-(((R)-3-(((1r, 4R)-4-hydroxycyclohexyl)methyl)-5-nitro-3,4-dihydro-2H-benzo[b][1,4]oxazin-7-yl)sulfonyl)-4-(2-(2-(2-isopropylphenyl)-4-(2-methoxyethyl)piperazin-1-yl)-7-azaspiro[3.5]nonan-7-yl)benzamide], for which the “Ratio of Bcl-2 G101V/WT” value in test [1] is recorded as 14.3. For the same molecule, the IC50 in test [2] stood at 0.093 nM; in test [3], 5.16 nM; in test [4], 0.084 nM; in test [5] (setting [7]), 0.0065 nM; in test [5] (setting [8]) it was 0.0065 nM; in test [6], 0.45 nM. Besides, the “Ratio of Bcl-2 D103Y/Bcl-2 WT” value in test [4] came to 13.
